Measurements from the CheMixHub viscosity set.

Experiment: xn = mol fraction of the nth substance listed

O=Cc1ccccc1 + CCCCO
viscosity [mPa·s], 101.33 kPa
Conditions | x1 = 0.1021 | x1 = 0.2004 | x1 = 0.3089 | x1 = 0.4057 | x1 = 0.4992 | x1 = 0.6014 | x1 = 0.6982 | x1 = 0.8044 | x1 = 0.9027
293.15 K | 2.662 | 2.48 | 2.294 | 2.14 | 2.001 | 1.86 | 1.735 | 1.608 | 1.498
303.15 K | 2.143 | 2.025 | 1.903 | 1.799 | 1.705 | 1.608 | 1.521 | 1.43 | 1.352
313.15 K | 1.62 | 1.563 | 1.503 | 1.451 | 1.403 | 1.352 | 1.305 | 1.256 | 1.212
323.15 K | 1.088 | 1.086 | 1.084 | 1.082 | 1.081 | 1.079 | 1.077 | 1.075 | 1.074

Cc1ccc(C)cc1 + CCCO
viscosity [mPa·s], 100 kPa
Conditions | 298.15 K | 308.15 K
x2 = 0.0643 | 0.6146 | 0.5489
x2 = 0.1254 | 0.631 | 0.5619
x2 = 0.2254 | 0.6713 | 0.5956
x2 = 0.3547 | 0.7426 | 0.6389
x2 = 0.4703 | 0.8348 | 0.7071
x2 = 0.5743 | 0.9545 | 0.7925
x2 = 0.6683 | 1.058 | 0.9054
x2 = 0.7538 | 1.253 | 1.028
x2 = 0.8318 | 1.449 | 1.198
x2 = 0.9033 | 1.662 | 1.337
x2 = 0.9691 | 1.814 | 1.457

O=C(O)CCC(=O)O + CCCO
101 kPa
Conditions | viscosity [mPa·s]
308.15 K, x1 = 0.0284 | 1.872
313.15 K, x1 = 0.0284 | 1.657
313.15 K, x1 = 0.03 | 1.657
313.15 K, x1 = 0.037 | 1.72
313.15 K, x1 = 0.043 | 1.777
313.15 K, x1 = 0.0435 | 1.888
313.15 K, x1 = 0.048 | 1.888
318.15 K, x1 = 0.0284 | 1.492
318.15 K, x1 = 0.0435 | 1.635
323.15 K, x1 = 0.0284 | 1.326
323.15 K, x1 = 0.0435 | 1.462

O=C(O)c1ccccc1C(=O)O + CCCO
viscosity [mPa·s]
Conditions | 308.15 K | 313.15 K | 318.15 K | 323.15 K
101 kPa, x1 = 0.02 | – | 1.632 | – | –
101 kPa, x1 = 0.027 | – | 1.732 | – | –
101 kPa, x1 = 0.0369 | – | 1.887 | – | –
101.33 kPa, x1 = 0.02 | 1.78 | 1.632 | 1.457 | 1.302
101.33 kPa, x1 = 0.0369 | 2.133 | 1.887 | 1.672 | 1.488

O=Cc1ccccc1 + CCCO
Conditions | viscosity [mPa·s]
308.15 K, 101 kPa, x2 = 0.8022 | 1.215

CCCCCCCCN + CCN(CC)CC
viscosity [mPa·s], 101.33 kPa
Conditions | x2 = 0.1056 | x2 = 0.2038 | x2 = 0.4151 | x2 = 0.4978 | x2 = 0.6055 | x2 = 0.8063 | x2 = 0.9007
303.15 K | 1.021 | 0.9064 | 0.7044 | 0.6396 | 0.5641 | 0.4488 | 0.4031
313.15 K | 0.8659 | 0.7719 | 0.6062 | 0.5533 | 0.4916 | 0.3975 | 0.3611

c1ccc(Nc2ccccc2)cc1 + CCN(CC)c1ccccc1
viscosity [mPa·s], 101 kPa
Conditions | x1 = 0.1169 | x1 = 0.2161 | x1 = 0.4308 | x1 = 0.5654 | x1 = 0.6688 | x1 = 0.7545 | x1 = 0.8327 | x1 = 0.949
298.15 K | 2.41 | 2.98 | 4.63 | 6.52 | 8.13 | – | – | –
323.15 K | 1.35 | 1.58 | 2.22 | 2.9 | 3.31 | 3.82 | 4.49 | 5.4

NCCO.O=CO + CCO
viscosity [mPa·s], 101 kPa
Conditions | x2 = 0.6996 | x2 = 0.7776 | x2 = 0.8461 | x2 = 0.9031 | x2 = 0.9294 | x2 = 0.9544 | x2 = 0.9779
293.15 K | 12.34 | 7.77 | 5.01 | 3.318 | 2.76 | 2.28 | 1.86
298.15 K | 10.54 | 6.762 | 4.44 | 3 | 2.502 | 2.064 | 1.71
303.15 K | 9.078 | 5.97 | 3.984 | 2.73 | 2.268 | 1.902 | 1.584
